From US9957214B2, “Multifunctional radical quenchers” (ARIZONA BOARD OF REGENTS ON BEHALF OF ARIZONA STATE …, priority 2012, dated 2018) come the findings set out here.

In one data set the test system is CEM leukemia cells. The data set can be described thus: Suppression of ROS production (DCFH-DA flow cytometry) in DEM-treated CEM leukemia cells. The format is cell-based. The settings on record: 5 μM; CEM leukemia cells pretreated with DEM. As to the method: FIG. 1. Flow cytometric analysis of CEM leukemia lymphocytes (gray bars) and FRDA lymphocytes (black bars) stained with dichlorodihydrofluorescein diacetate (DCFH-DA) for 20 min, following pretreatment with the test compounds at 5 μM concentration for 16 h, and subsequent treatment with diethyl maleate (DEM) for 60 or 80 min to induce the production of ROS in CEM and FRDA lymphocytes, respectively. Data shown represent the mean±SEM of two different experiments run as duplicates.
Intracellular ROS production was measured in FRDA lymphocyte cells (GM15850, Coriell Cell Repositories, Camden, N.J.) using the oxidant sensitive fluorescent probe 2,7-dichlorodihydrofluorescein diacetate (DCFH-DA) (Molecular Probes) as described previously (Khdour et al. (2011) Pharm. Res. 28, 2896-2909). One mL of FRDA lymphocyte cells or leukemic CEM cells (5×10^5 cells) were plated in a 24-well plate, treated with the test compounds and incubated at 37° C. for 16 h in a humidified atmosphere containing 5% CO2 in air. Cells were treated with 5 mM diethyl maleate (DEM) for 80 min or 60 min respectively, collected by centrifugation at 300×g for 3 min and then washed with phosphate buffered saline (PBS) (Life Technologies). Cells were resuspended in PBS containing 20 mM glucose and incubated at 37° C. in the dark for […] with 10 μM DCFH-DA. Cells were collected by centrifugation at 300×g for 3 min and then washed with PBS. The samples were analyzed immediately by flow cytometry (C6 Accuri, BD Biosciences, San Jose, Calif.), using a 488 nm excitation laser and the FL1-H channel 530±15 nm emission filter. The generation of ROS, mainly peroxides, was detected as a result of the oxidation of DCFH. In each analysis, 10,000 events were recorded after cell debris was electronically gated out. Results obtained were verified by running duplicates and repeating experiments in three independent runs. Results were expressed as percentage of ROS scavenging activity.
The ability of the synthesized analogues to quench ROS and lipid peroxidation was evaluated in FRDA lymphocytes or leukemic CEM cells. These cells were placed under oxidative stress by depleting them of glutathione (GSH) using diethyl maleate (DEM). Depletion of glutathione by treatment FRDA lymphocytes or leukemic CEM cells with DEM has been used to induce oxidative stress in cellular systems by generation of ROS. Intracellular ROS production was measured using the oxidant sensitive fluorescent probe 2,7-dichlorodihydrofluorescein diacetate (DCFH-DA) (Molecular Probes).
Background: In flow cytometry, cells or beads pass a laser one at a time.

Data set [1] has as its system Friedreich's ataxia lymphoblast cell line GM15850. The data set can be described thus: Cytoprotection (trypan blue exclusion assay) of DEM-treated FRDA lymphocytes. The class given is cell-based. The settings on record: DEM alone 18 ± 10% viability. As for the experimental part: Cell viability was determined by trypan blue exclusion assay in Friedreich's ataxia lymphoblast cell line GM15850 (Coriell Institute, New Jersey). This technique was used to assess the cytoprotective effects of the tested compounds in cultured cells treated with DEM to induce cell death by GSH depletion. The viability of DEM-treated FRDA cells was determined by their ability to exclude the dye trypan blue. Viable cells exclude trypan blue, whereas non-viable cells take up the dye and stain blue. Briefly, FRDA lymphocytes were grown in RPMI 1640 medium (Gibco) supplemented with 15% fetal calf serum, 2 mM glutamine (HyClone) and 1% penicillin-streptomycin mix (Cellgro). Cells were seeded at a density of 5×10^5 cells/mL and treated with different concentrations of the indicated compounds. Cells were incubated at 37° C. in a humidified atmosphere of 5% CO2 in air for 17 h. After pre-incubation, the cells were treated with 5 mM DEM. Cell viability was determined by staining cells with 0.4% trypan blue using a hemacytometer. At least 500 cells were counted in each experimental group. At the time of assay, <20% of DEM treated cells were viable (trypan blue negative), whereas in non DEM-treated control, >90% cells were viable. Cell viability was expressed as the percentage of control. Data are expressed as means±S.E.M. (n=3).
Cell viability was determined by trypan blue exclusion assay in Friedreich's ataxia lymphoblast cell line GM15850 (Coriell Institute). This technique was used to assess the cytoprotective effects of the compounds in cultured cells treated with diethyl maleate (DEM) to induce cell death by glutathione (GSH) depletion. The viability of DEM-treated FRDA cells was determined by their ability to exclude the dye trypan blue. Viable cells exclude trypan blue, whereas non-viable cells take up the dye and stain blue. […] Benzoquinone analogue 9 afforded greater cyoprotection to FRDA lymphocytes at 5 μM concentration than did the tert-butyl ester 6 (74 vs 50%).

The test system of a further data set is FRDA lymphocytes. The data set can be described thus: Suppression of lipid peroxidation (C11-BODIPY581/591, FACS) in FRDA lymphocytes treated with diethyl maleate. The class given is cell-based. The settings on record: DEM. An excerpt: Several methods for assaying lipid peroxidation in vitro have been developed (Kuypers et al. (1987) Biochim Biophys Acta. 25, 266-274; Pap et al. (1999) FEBS Lett. 453, 278-282; Drummen et al. (2002) Free RadicBiol Med. 33, 473-490). Almost all of these methods are based on inhibition of free radical-induced oxidation reactions. A widely used fluorescence assay for lipid peroxidation uses lipid soluble cis-parinaric acid as a probe. cis-parinaric acid loses its fluorescence (λexc/em: 320/432 nm) upon interaction with peroxyl radicals and retains its fluorescence in the presence of radical quenchers. cis-parinaric acid is, however, air sensitive, photolabile and absorbs light in the UV region of the spectrum (at ˜320 nm). […] In practical terms, the results obtained using cis-parinaric as a probe for lipid peroxidation are confounded due to the overlapping of the compounds emission spectra with the cis-parinaric emission spectrum. C11-BODIPY^581/591 Oxidation to Measure Lipid Peroxidation To overcome the problem of spectral overlap using cis-parinaric acid, a fluorescence assay for lipid peroxidation using a lipophilic probe belonging to the BODIPY class of fluorescent dyes was used C11-BODIPY^581/591 (4,4-difluoro-5(4-phenyl-1,3-butadienyl)-4-bora-3a, 4a-diaza-s-indacene-3-propionic acid) fluorescent shifts from red to green upon oxidation. C11-BODIPY^581/591 (Molecular Probes, Eugene, Oreg., USA) stock solution concentrations were determined by measuring the absorption of C11-BODIPY^581/591 at 582 nm using a molar extinction coefficient of 140,000 mol^−1 cm^−1 (R. P. Haugland, (1999) Handbook of Fluorescent Probes and Research Chemicals, Molecular Probes, Inc., Eugene, Oreg.). The lipid peroxidation inducer 2,2′-Azobis (2-amidino-propane dihydrochloride) (AAPH) and the antioxidant compound α-tocopherol (α-TOH) were obtained from Sigma (St. Louis, Mo., USA). Phospholipid bilayers were prepared from 1-stearoyl-2-oleoyl-phosphatidylcholine (SOPC) and 1,2-dilinoleoyl-phosphatidylcholine (DLPC) and were purchased from Avanti® polar lipids, Inc., (Alabaster, Ala., USA). Preparation of Liposomes Phosphotidylcholine (PC) liposomes were prepared as described before (Guey-Shuang et al. (1982) Lipids. 17, 403-413). Briefly, DLPC (25 mg) were dissolved in chloroform and the solvent was removed by nitrogen evaporation (˜2 hours) to give a thin film of PC in a round bottom flask. The lipid film was hydrated with 50 mL of 10 mM Tris-HCl (pH 7.4), 100 mM KCl, shaken and sonicated for 15 seconds. The liposomes obtained were filtered several times through […] membrane filter. Measurement of C11-BODIPY^581/591 Oxidation C11-BODIPY^581/591 was incorporated into liposomes and oxidized by peroxyl radicals derived from the decomposition of AAPH in the presence and absence of compounds. Liposomes (1 mg/mL), suspended in 10 mM Tris-HCl (pH 7.4), 100 mM KCl, were transferred to a quartz 1 mL cuvette and placed in a Varian Cary Eclipse fluorometer (Varian, Cary, N.C.) equipped with a thermostatted cuvette holder at 40° C. Liposomes were pre-incubated for 10 min with 200 nM C11-BODIPY^581/591 to allow their incorporation into the lipid phase of the liposomes. After the addition of AAPH (10 mM) the decay of the red fluorescence was followed at λ exc=570 nm, λ em=600 nm. Relative fluorescence units were normalized to 100% intensity. Results obtained were verified by repeating experiments N=3 independent experiments. Measurement of C11-BODIPY^581/591 Oxidation in Cell Culture A quantitative FACS analysis of lipid peroxidation of FRDA lymphocytes, which had been treated with diethyl maleate following incubation in the presence and absence of the test compounds, was measured as described (Khdour et al. (2011) Pharmaceut. Res. 28, 2896-2909). Briefly, FRDA lymphocytes (5×10^5 cell/mL) were treated with the test compounds at final concentrations of 5 and 10 μM and incubated at 37° C. for 16 h in a humidified atmosphere containing 5% CO2 in air. […]

In data set [2] the test system is NADH oxidase (complexes I, III and IV). The data set can be described thus: NADH oxidase activity (complexes I, III and IV) in submitochondrial particles. The format is biochemical, bovine.

`CCCCCCCCCCCCCC1=C(NCCCC(=O)OC(C)(C)C)C(=O)C(C)=C(NCCCC(=O)OC(C)(C)C)C1=O` [Compound 44, 2,5-bis(tert-butyl 4-aminobutanoate)-3-methyl-6-tridecylcyclohexa-2,5-diene-1,4-dione]: in the data set on CEM leukemia cells, the “Scavenging activity (%), suppression of ROS production” value amounted to 0%. Moreover, the “Cytoprotection (cell viability, % of untreated control)” value in data set [1] (1 μM) is 15 ± 2%; in data set [1] (5 μM), 98 ± 6^ %. Besides, the entries for the “Scavenging activity (%), suppression of lipid peroxidation” value in the data set with FRDA lymphocytes (5 μM) and in the data set with FRDA lymphocytes (10 μM) were 8 ± 3% and 13 ± 3^ %, respectively. Also, the figures for the “NADH oxidase activity (Complex I, III, IV) %” value in data set [2] (1 μM), in data set [2] (5 μM) and in data set [2] (10 μM) were 95 ± 2^ %, 92 ± 3^ % and 84 ± 3%, respectively.
For the molecule `CCCCCCCCCCCCCC1=C(NCCCC(=O)OCCCC)C(=O)C(C)=C(NCCCC(=O)OCCCC)C1=O` [Compound 47, 2,5-bis(butyl 4-aminobutanoate)-3-methyl-6-tridecylcyclohexa-2,5-diene-1,4-dione], the “Scavenging activity (%), suppression of ROS production” value in the data set on CEM leukemia cells turned out to be 25 ± 11%. For the same molecule, the “Cytoprotection (cell viability, % of untreated control)” value is listed as 9 ± 2% in data set [1] (1 μM) and 17 ± 3^ % in data set [1] (5 μM). Also, the “Scavenging activity (%), suppression of lipid peroxidation” value with FRDA lymphocytes (5 μM) is on record as 7 ± 1%; in the data set with FRDA lymphocytes (10 μM) it was 19 ± 2^ %. For the same molecule, the “NADH oxidase activity (Complex I, III, IV) %” value in data set [2] (1 μM) is reported as 77 ± 1^ %; in data set [2] (5 μM), 68 ± 1^ %; in data set [2] (10 μM), 69 ± 2%.
